Assay results as given in patent publication US20080119412A1, “Polypeptides for Modulating Binding of Trp Channel Proteins and Trp- Associated Proteins” (NoNO Inc., priority 2003, published 2008).
Residues, ends and D or L forms follow the SMILES beside them. *: point of attachment. Biotin = O=C1N[C@H]2[C@H](CS[C@H]2CCCCC(=O)*)N1

Target: T1, Mint 1 (d1, d2) (Homo sapiens, UniProt Q02410, K730E)
T1 construct: made in house; host or cells: E. coli (DH5alpha, BL21 or JM109)
T1 sequence (Q02410 651-828 K730E): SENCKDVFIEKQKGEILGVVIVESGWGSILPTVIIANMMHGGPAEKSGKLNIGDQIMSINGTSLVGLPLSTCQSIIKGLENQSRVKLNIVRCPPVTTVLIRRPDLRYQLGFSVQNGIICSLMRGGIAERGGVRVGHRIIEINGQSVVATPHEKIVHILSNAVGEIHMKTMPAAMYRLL
Assay: G3 assay titration, GST-PDZ fusion / biotinylated peptide
Type: binding

With `CSCC[C@H](NC(=O)[C@H](CC(C)C)NC(=O)[C@H](CCCNC(=N)N)NC(=O)[C@@H](NC(=O)[C@H](CO)NC(=O)[C@H](CC(N)=O)NC(=O)[C@@H](NC(=O)[C@H](CO)NC(=O)[C@H](CCCNC(=N)N)NC(=O)[C@H](CCCNC(=N)N)NC(=O)[C@H](CCCNC(=N)N)NC(=O)[C@H](CCC(N)=O)NC(=O)[C@H](CCCNC(=N)N)NC(=O)[C@H](CCCNC(=N)N)NC(=O)[C@H](CCCCN)NC(=O)[C@H](CCCCN)NC(=O)[C@H](CCCNC(=N)N)NC(=O)CNC(=O)[C@H](Cc1ccc(O)cc1)NC(=O)CCCC[C@@H]1SC[C@@H]2NC(=O)N[C@@H]21)[C@@H](C)O)C(C)C)C(=O)N[C@@H](CC(C)C)C(=O)O` [Tat-TRPM7 peptide] (Biotin-YGRKKRRQRRRSTNSVRLML-OH) the EC50 was 180 nM.
